Target: T1, aryl hydrocarbon receptor (Rattus norvegicus, UniProt P41738, Q794H)
T1 construct: The SD-line rat AhR gene-coding region was amplified from the reverse-transcribed sample by means of PCR; V5-His (C-terminal tag of vector pcDNA4/V5-His B); expressed in transfected cells; host or cells: mouse neuroblastoma Neuro2a, transient transfection with LIPOFECTAMINE 2000
T1 sequence (P41738 10-853 Q794H): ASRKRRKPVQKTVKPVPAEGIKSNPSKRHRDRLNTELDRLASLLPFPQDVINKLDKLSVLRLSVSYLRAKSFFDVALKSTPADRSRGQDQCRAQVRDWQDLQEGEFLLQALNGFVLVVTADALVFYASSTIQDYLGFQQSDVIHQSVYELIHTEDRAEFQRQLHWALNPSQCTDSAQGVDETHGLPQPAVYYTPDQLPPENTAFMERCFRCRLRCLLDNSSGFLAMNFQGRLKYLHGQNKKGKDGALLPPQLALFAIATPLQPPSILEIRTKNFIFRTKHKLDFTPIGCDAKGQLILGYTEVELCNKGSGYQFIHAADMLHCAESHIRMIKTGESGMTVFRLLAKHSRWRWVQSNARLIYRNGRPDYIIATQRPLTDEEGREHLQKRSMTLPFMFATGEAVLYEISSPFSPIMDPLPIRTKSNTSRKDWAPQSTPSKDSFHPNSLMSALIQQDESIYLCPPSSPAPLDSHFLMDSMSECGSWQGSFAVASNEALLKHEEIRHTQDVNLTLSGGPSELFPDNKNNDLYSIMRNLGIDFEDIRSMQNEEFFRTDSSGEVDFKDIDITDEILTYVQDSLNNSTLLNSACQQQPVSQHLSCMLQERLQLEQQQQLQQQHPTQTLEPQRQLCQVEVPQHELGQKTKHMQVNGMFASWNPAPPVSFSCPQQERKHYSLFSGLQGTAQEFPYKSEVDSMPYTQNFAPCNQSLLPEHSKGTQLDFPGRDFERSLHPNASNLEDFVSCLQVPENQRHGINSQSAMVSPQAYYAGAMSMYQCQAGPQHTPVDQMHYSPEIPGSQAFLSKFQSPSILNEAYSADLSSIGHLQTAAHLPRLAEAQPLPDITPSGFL
Assay: Reporter gene assay in Neuro2a with pTHE100/Luc, pTHE100×3/Luc and pTHE100×5/Luc (tandem copies of SEQ ID No: 3)
Assay type: cell-based, SD-line rat
Excerpt: The terminal of the “region of SEQ ID No: 3 amplified by PCR in Example 6” was phosphorylated with 5′-polynucleotide kinase (Takara Bio Inc.), and then, the regions of SEQ ID No: 3 were ligated in tandem with each other by using a ligation kit (Toyobo). The ligated DNA fragment was digested with restriction enzymes KpnI and NheI, and subjected to agarose gel electrophoresis. DNA fragment consisting of three copies of the regions of SEQ ID No: 3 linked in tandem and DNA fragment consisting of five copies of the regions of SEQ ID No: 3 linked in tandem were excised from the gel based on their molecular weight, and purified with a QIAQUICK Gel Extraction Kit. These DNA fragments were digested with KpnI and NheI, and incorporated into a vector pTHE100/Luc containing no region of SEQ ID No: 3, to prepare a recombinant vector pTHE100×3/Luc containing three tandem copies of the regions of SEQ ID No: 3, and a recombinant vector pTHE100×5/Luc containing five tandem copies of the regions of SEQ ID No: 3 (FIG. 7A). pTH100/Luc, pTHE100×3/Luc, and pTHE100×5/Luc were introduced into Neuro2a by a method similar to that in Example 3. The obtained cell was exposed to 10 nM TCDD, and then, the change in the expression amount of the reporter gene was examined (FIG. 7B).
Further, the transcriptional response to the TCDD concentration and the transcriptional response to dioxin congeners were evaluated by using the pTHE100×3/Luc. The transcriptional response to the TCDD concentration was determined by a method similar to that in Example 3, specifically, by incorporating the vector pTHE100×3/Luc into Neuro2a, exposing the obtained cell to 1 to 10,000 μM of TCDD, and measuring the change in the expression amount of the reporter gene. […] On the other hand, the transcriptional response to dioxin congeners was determined by a method similar to that in Example 3, specifically, by incorporating the vector pTHE100×3/Luc into Neuro2a, exposing the obtained cell to eight kinds of dioxin congeners including TCDD, and measuring the activity of these congeners on transcriptional regulation. […]

## Clc1cc2c(cc1Cl)Oc1cc(Cl)c(Cl)cc1O2 [TCDD, 2,3,7,8-tetrachlorodibenzo-p-dioxine]
10 nM TCDD, pTH100/Luc, pTHE100×5/Luc
  increase in the activity of the test substance on transcriptional regulation, by number of copies of SEQ ID No: 3: highest with the vector pTHE100×3/Luc
Eight kinds of dioxin congeners tested
  influence of dioxin congeners on transcriptional regulation: exerted influence on transcriptional regulation
Exposure 1 to 10,000 μM of TCDD (so in the source)
  expression amount of the reporter gene versus TCDD concentration: increased statistically significantly with the increase in TCDD concentration up to 10 μM

From patent publication US7811760B2, “Vector and method for detecting the change in transcription amount” (priority 2006, dated 2010)
